Source: patent US20110105496A1, “Methods For The Treatment Of Myosin Heavy Chain-Mediated Conditions Using 4,7-Dihydrothieno[2,3-B]Pyridine Compounds” (priority 2005, published 2011)
Where two headings read alike, the source gives them in different places.

Test system: alpha-MyHC
Assay: alpha-MyHC cytoblot process in neonatal rat ventricular myocytes (NRVM)
Assay type: cell-based

Compound	EC50	Max Plateau	further results
CC(=O)C1=C(C)Nc2sc(C(=O)c3ccc(Cl)c(Cl)c3)c(N)c2C1(C)c1cccc(F)c1 (stereo not shown) [Compound 207, 1-[3-amino-2-(3,4 dichloro-benzoyl)-4-(3 fluoro-phenyl)-4,6-dimethyl-4,7 dihydro-thieno[2,3-b]pyridin-5-yl]-ethanone]			Max Plateau (Table 4, NRVM, 72 hours, maximum of dose response fit): 148.73 ± 27.95 per cent fraction of low control
CC(=O)C1=C(C)N(C)c2sc(C(=O)c3ccccc3)c(N)c2C1c1ccccc1 (stereo not shown) [Compound 208, 1-(3-amino-2-benzoyl-6,7 dimethyl-4-phenyl-4,7 dihydro-thieno[2,3-b]pyridin-5-yl)-ethanone]			Max Plateau (Table 5 (R^4 substituted), NRVM, 72 hours, maximum of dose response fit): 173.33 per cent fraction of low control
CCC1=C(C(=O)OCCNC(=O)OC(C)(C)C)C(c2ccccc2F)c2c(sc(C(=O)c3ccc(Cl)c(Cl)c3)c2N)N1 (stereo not shown) [Compound 222, Bac protected 3-amino-2-(3,4 dichloro-benzoyl)-4-(2 fluoro-phenyl)-6-methyl-4,7 dihydro-thieno[2,3-b]pyridine-5-carboxylic acid 2-amino-ethyl ester]	94.3 nM	128.75 ± 8.38	
N[C@@H](Cc1cc(I)c(Oc2ccc(O)c(I)c2)c(I)c1)C(=O)O [Compound T3, 3,5,3′-triiodo-L-thyronine, reference compound]			Relative Light Unit (RLU) values (high control, 3 nM T3, low control (vehicle only) 2,000-3,000): 8,000-10,000 RLU
CC(=O)NCCOC(=O)C1=C(C)Nc2sc(C(=O)c3ccc(Cl)c(Cl)c3)c(N)c2C1c1ccccc1 (stereo not shown) [compound 214]		100.00 ± 0.00	
CCC1=C(C(=O)OCCN)C(c2ccccc2F)c2c(sc(C(=O)c3ccc(Cl)c(Cl)c3)c2N)N1 (stereo not shown) [compound 221]	22.7 nM	156.50 ± 9.76	
CC1=C(C(=O)OCCNC(=O)OC(C)(C)C)C(c2ccccc2F)c2c(sc(C(=O)c3ccc(Cl)c(Cl)c3)c2N)N1 (stereo not shown) [compound 223]	10.8 nM	213.11 ± 12.55	
